Legend:
R. delemar = experiment: Tissue fungal burden of lungs and brains by qPCR in neutropenic mice; assay type: in vivo; conditions: 10 mg/kg starting 4 h post infection through Day +3, organs collected Day +4, qPCR
Experimental: Murine models of Mucormycosis. Male ICR mice (20-25 g from Envigo) were immunosuppresed by cyclophosphamide (200 mg/kg administered intraperotenually [i.p]) and cortisone acetate (500 mg/kg, adminstered subcutaneously) given on days −2, +3, and +9 relative to infection. […] To control for bacterial infection, immunosuppressed mice received 50 mg/L Baytrial (enrofloxacin: Bayer, Leverkusen, Germany) ad libitum on Day −3 thorough Day 0, after which Baytril was replaced with daily ceftazidime (5 mg/mouse) treatment adminstered subcutaneously through day+13 days post infection. […] On Day +4, mice were sacrificed and lungs and brains, representing primary and secondary target organs (Luo G, Gebremariam T, Lee H, French S W, Wiederhold N P, Patterson T F, Filler S G, Ibrahim A S. 2013. Efficacy of liposomal amphotericin B and posaconazole in intratracheal models of murine mucormycosis. Antimicrobial agents and chemotherapy 57:3340-7), were collected and processed for tissue fungal burden by qPCR (Ibrahim A S, Bowman J C, Avanessian V, Brown K, Spellberg B, Edwards J E, Jr., Douglas C M. 2005. Caspofungin inhibits Rhizopus oryzae 1,3-beta-D-glucan synthase, lowers burden in brain measured by quantitative PCR, and improves survival at a low but not a high dose during murine disseminated zygomycosis. […]
Statistical Analyses. […] Data were expressed as median±interquartile range. […]

[1] = test system: A549 cells infected with M. circinelloides; experiment: M. circinelloides-induced damage of A549 cells (LDH assay); assay type: cell-based, human; conditions: 25 μM Mifepristone overnight and/or 25 μM Gefitinib 1 h, 24 h infection (FIG. 14)
[2] = test system: A549 alveolar epithelial cells infected with R. delemar spores; experiment: Measurement of host cell endocytosis of R. delemar by A549 cells (Uvitex differential fluorescence); assay type: cell-based, human; conditions: for endocytosis of R. delemar spores: A549 cells pretreated 1 h with 25 μM Gefitinib or 25 μg/ml Cetuximab, 3 h infection, vs vehicle or IgG1 control antibody
Experimental: Measurement of host cell endocytosis. 12-mm glass coverslips were seeded with A549 alveolar epithelial cells. […] For controls, host cells will be incubated with DMSO (the solvent used to reconstitute the inhibitor) or 25 μg/ml mouse IgG antibody in parallel. Host cells were then infected with 2×10^5 R. delemar spores. After incubation for 3 h, cells were fixed in 3% paraformaldehyde and stained for 1 h with 1% Uvitex, which specifically binds to chitin in the fungal cell wall. After washing with PBS, coverslips were mounted on a glass slide with a drop of ProLong Gold anti-fade reagent (Molecular Probes) and sealed. The total number of cell-associated organisms (i.e. fungi adhering to the monolayer) per high-powered field were determined by phase-contrast microscopy. The same field will be examined by epifluorescence microscopy, and the number of brightly fluorescent, uninternalized fungi were determined. The number of endocytosed organisms was calculated by subtracting the number of fluorescent fungi from the total number of visible fungi. At least 400 organisms were counted per treatment group in at least 15 different fields per coverslip. Experiments were performed in duplicate or triplicate on at least two separate days.
12-mm glass coverslips in 12 well dishes will be seeded with A549 alveolar epithelial cells. Cells were then pre-treated 1 h with inhibitors. For controls, host cells were incubated with the appropriate amount of diluent used to reconstitute the inhibitor in parallel. Host cells were then infected with 2×10^6 Rdelemar. After incubation for 3 h, cells were fixed in 3% paraformaldehyde and stained for 1 h with 1% Uvitex, which specifically binds to chitin in the fungal cell wall. After washing with PBS, coverslips were mounted on a glass slide with a drop of ProLong Gold anti-fade reagent (Molecular Probes) and sealed. The total number of cell-associated organisms (i.e., fungi adhering to the monolayer) per high-powered field was determined by phase-contrast microscopy. The same exact field was examined by epifluorescence microscopy, and the number of brightly fluorescent, uninternalized fungi will be determined. The number of endocytosed organisms is calculated by subtracting the number of fluorescent organisms from the total number of visible organisms. At least 400 organisms were counted in at least 15 different fields per coverslip. Experiments were performed in duplicate on separate days. Data will be expressed as median f interquartile range.

[3] = test system: A549 cells infected with R. oryzae; experiment: R. oryzae-induced damage of A549 cells (LDH assay); assay type: cell-based, human; conditions: 25 μM Mifepristone overnight and/or 25 μM Gefitinib 1 h, 24 h infection (FIG. 14)
Experimental: R. delemar-induced A549 cell damage was quantified using the Pierce LDH assay, with slight modifications to the manufacturer's protocol. Briefly, A549 cells were grown in 96-well tissue culture plates for 18 to 24 h. […] For controls, host cells were incubated with the appropriate amount of diluent used to reconstitute the in parallel. After 24 h of incubation at 37° C., 50 μl of the cell culture supernatant was collected from uninfected, infected, and fungus-only control wells and transferred to a 96-well plate to assay for LDH activity. Lysis buffer was added to all infected wells, and the mixture was incubated for 45 min at 37° C. After lysis, 50 μl of cell culture supernatant was transferred to a 96-well plate and used for the LDH assay kit per the protocol. LDH release was calculated as follows: % cytotoxicity=[(experimental release−fungal cell spontaneous control−host cell spontaneous control)/(host cell maximum control−fungal cell maximum control−host cell spontaneous control)]×100. LDH is a cytosolic enzyme but will be released into the cell culture medium upon cell membrane damage. The amount of extracellular LDH is proportional to the amount of cell damage.

Compound: COc1cc2ncnc(Nc3ccc(F)c(Cl)c3)c2cc1OCCCN1CCOCC1 [Gefitinib]
- reduction in fungal burden in organs (lungs and brains) compared to placebo-treated mice (R. delemar): ~1 log
- M. circinelloides-induced damage [1]: significantly decreased
- endocytosis of R. delemar spores [2]: significantly reduced
- endocytosis of R. delemar spores ([2]; listed as Gefinitib): did not completely block
- endocytosis after pre-treatment of R. delemar spore preparations ([2]; spore preparations pre-treated with drug prior to the infection): did not reduce
- R. oryzae-induced damage [3]: significantly decreased
